pIC50: −log10 of the molar value.
Test system: HL-60
Assay: Antiproliferative activity against human HL60 cells after 72 hrs by MTT assay
Format: functional, cell-based
Settings: HL-60, 72 h

Q: CN(C)C(=S)NN=C(c1ccccn1)c1ccccn1 was tested. Which pIC50 did it give?
A: 8.00

— ChEMBL document CHEMBL1139363, “Iron chelators of the dipyridylketone thiosemicarbazone class: precomplexation and transmetalation effects on anticancer activity” (J Med Chem, 2009)
